Reference: US11427548B2 (Arvinas Operations, Inc., priority 2015, dated 2022)
Like-named read-outs stand apart in the source and are kept apart here.

Biological target: T1, Androgen Receptor (Homo sapiens, UniProt P10275)
T1 construct: endogenous in cells; host or cells: VCaP cells
T1 sequence (P10275 1-920): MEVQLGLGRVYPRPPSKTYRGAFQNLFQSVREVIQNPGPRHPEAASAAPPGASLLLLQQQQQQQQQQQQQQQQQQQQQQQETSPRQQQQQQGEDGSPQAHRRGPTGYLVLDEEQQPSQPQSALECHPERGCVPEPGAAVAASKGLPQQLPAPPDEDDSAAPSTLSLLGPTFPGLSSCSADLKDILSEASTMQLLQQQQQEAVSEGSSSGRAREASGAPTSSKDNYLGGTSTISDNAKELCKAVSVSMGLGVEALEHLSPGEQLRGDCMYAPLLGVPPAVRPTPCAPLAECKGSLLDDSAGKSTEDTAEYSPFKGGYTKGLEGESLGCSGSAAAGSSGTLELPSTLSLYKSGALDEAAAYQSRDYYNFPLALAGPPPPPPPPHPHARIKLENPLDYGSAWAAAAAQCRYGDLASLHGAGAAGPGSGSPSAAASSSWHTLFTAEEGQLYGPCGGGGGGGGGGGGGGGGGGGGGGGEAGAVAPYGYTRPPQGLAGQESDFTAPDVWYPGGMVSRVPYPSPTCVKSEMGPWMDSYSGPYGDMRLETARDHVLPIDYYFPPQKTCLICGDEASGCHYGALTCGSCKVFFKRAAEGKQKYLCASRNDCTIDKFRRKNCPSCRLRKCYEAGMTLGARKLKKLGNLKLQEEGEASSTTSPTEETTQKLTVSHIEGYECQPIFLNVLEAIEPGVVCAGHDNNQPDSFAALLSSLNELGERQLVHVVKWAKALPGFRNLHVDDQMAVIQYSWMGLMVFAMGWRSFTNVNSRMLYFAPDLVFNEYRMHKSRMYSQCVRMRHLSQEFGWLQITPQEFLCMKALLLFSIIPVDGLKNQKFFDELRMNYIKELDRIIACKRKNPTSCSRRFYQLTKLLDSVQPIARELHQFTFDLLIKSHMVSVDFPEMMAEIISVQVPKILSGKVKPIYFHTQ
Experiment: Androgen Receptor ELISA assay (PathScan AR ELISA) in VCaP cells: AR degradation, Dmax and DC50
Assay type: cell-based
Summary of the method: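 VCaP cells in phenol red-free RPMI with 5% charcoal-stripped FBS were grown at least 3 days, then given compound as 7 half-log doses in 0.1% DMSO with 0.1 nM R1881 for 24 h. Lysates went into a sandwich AR ELISA with TMB read at 450 nm.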

[1] = VCaP, highest percentage of Androgen Receptor degradation observed, VCaP cells (Table 32); read-out: VCaP Dmax (%)
[2] = concentration that caused 50% Androgen Receptor degradation, VCaP cells (Table 32); read-out: VCaP DC50
[3] = VCaP cells; Table 36; read-out: VCaP DC50
[4] = VCaP, VCaP cells; Table 36; read-out: VCaP Dmax (%)
[5] = read-out: VCaP DC50; VCaP cells; Table 36
[6] = VCaP cells; Table 35; read-out: VCaP DC50
[7] = VCaP, VCaP cells; Table 35; read-out: VCaP Dmax (%)

## Cc1ncoc1-c1ccc(CNC(=O)[C@@H]2C[C@@H](O)CN2C(=O)[C@@H](NC(=O)COCCCCCOc2ccc(C(=O)N[C@H]3C(C)(C)[C@H](Oc4ccc(C#N)c(C(F)(F)F)c4)C3(C)C)cc2)C(C)(C)C)cc1 [Example 154, (2S,4R)-1-[(2S)-3,3-dimethyl-2-(2-{[5-(4-{[trans--3-[4-cyano-3-(trifluoromethyl)phenoxy]-2,2,4,4-tetramethylcyclobutyl]carbamoyl}phen-oxy)pentyl]oxy}acetamido)butanoyl]-4-hydroxy-N-{[4-(4-methyl-1,3-oxazol-5-yl)phenyl]methyl}pyrrolidine-2-carboxamide]
[1]
  Dmax: > 71%
[2]
  DC50: < 50 nM

## CC(C)[C@H](OCCN1CCN(c2ccc(C(=O)N[C@H]3C(C)(C)[C@H](Oc4ccc(C#N)c(Cl)c4)C3(C)C)cn2)CC1)C(=O)N[C@H](C(=O)N1C[C@H](O)C[C@H]1C(=O)NCc1ccc(Cl)cc1)C(C)(C)C [Example 742, N-((1r,3r)-3-(3-chloro-4-cyanophenoxy)-2,2,4,4-tetramethylcyclobutyl)-6-(4-(2-(((S)-1-(((S)-1-((2S,4R)-2-((4-chlorobenzyl)carbamoyl)-4-hydroxypyrrolidin-1-yl)-3,3-dimethyl-1-oxoutan-2-yl)amino)-3-methyl-1-oxobutan-2-yl)oxy)ethyl)piperazin-1-yl)nicotinamide]
[3]
  DC50: > 501 nM
[4]
  Dmax: < 25%

## Cc1ncsc1-c1ccc([C@H](C)NC(=O)[C@@H]2CC3CN2C(=O)C(C(C)(C)C)NC(=O)COCCCOCCC(CCOc2ccc(N4C(=S)N(c5ccc(C#N)c(C(F)(F)F)c5)C(=O)C4(C)C)cc2)OC(=O)CC/C=C/CCC(=O)O3)cc1 (stereo partly drawn) [Example 620, (3S,25R,27S,E)-3-(tert-butyl)-14-(2-(4-(3-(4-cyano-3-(trifluoroemthyl)phenyl)-5,5-dimethyl-4-oxo-2-thioxoimidazolidin-1-yl)phenoxy)ethyl)-N-((S)-1-(4-(4-methylthiazol-5-yl)phenyl)ethyl)-2,5,16,23-tetraoxo-7,11,15,24-tetraoxa-1,4-diazabicyclo[23.2.1]oct-acos-19-ene-27-carboxamide]
[5]
  DC50: > 501 nM

## Cc1ncsc1-c1ccc([C@H](C)NC(=O)[C@@H]2C[C@@H](O)CN2C(=O)[C@@H](NC(=O)CN2C3CCC2CN(CCCc2ccc(C(=O)N[C@H]4C(C)(C)[C@H](Oc5ccc(C#N)c(Cl)c5)C4(C)C)cn2)C3)C(C)(C)C)cc1 [Example 839, N-((1r,3r)-3-(3-chloro-4-cyanophenoxy)-2,2,4,4-tetramethylcyclobutyl)-6-(3-(8-(2-(((S)-1-((2S, 4R)-4-hydroxy-2-(((S)-1-(4-(4-methylthiazol-5-yl)phenyl)ethyl)carbamoyl)pyrrolidin-1-yl)-3,3-dimethyl-1-oxobutan-2-yl)amino)-2-oxoethyl)-3,8-diazabicyclo[3.2.1]octan-3-yl)propyl) nicotinamide]
VCaP, read-out: VCaP Dmax (%)
  Dmax: 51 to 70%
[5]
  DC50: < 50 nM

## CC(C)[C@H](OCCN1CCN(c2ccc(C(=O)N[C@H]3C(C)(C)[C@H](Oc4ccc(C#N)c(Cl)c4)C3(C)C)cn2)CC1)C(=O)N[C@@H](C)C(=O)N1C[C@H](O)C[C@H]1C(=O)NCc1ccc(Cl)cc1 [Example 731, N-((1r,3r)-3-(3-chloro-4-cyanophenoxy)-2,2,4,4-tetramethylcyclobutyl)-6-(4-(2-(((S)-1-(((S)-1-((2S,4R)-2-((4-chlorobenzyl)carbamoyl)-4-hydroxypyrrolidin-1-yl)-1-oxopropan-2-yl)amino)-3-methyl-1-oxobutan-2-yl)oxy)ethyl)piperazin-1-yl)nicotinamide]
[3]
  DC50: > 501 nM
[4]
  Dmax: < 25%

## CC(C)(C)[C@H](NC(=O)COCCCCCNc1ccc(C(=O)N[C@H]2C(C)(C)[C@H](Oc3ccc(C#N)c(Cl)c3)C2(C)C)cc1)C(=O)N1C[C@H](O)C[C@H]1C(=O)NCc1ccc(C#N)nc1 [Example 523]
[6]
  DC50: < 50 nM
[7]
  Dmax: 51 to 70%

## Cc1ncsc1-c1ccc(CNC(=O)[C@@H]2C[C@@H](O)CN2C(=O)[C@@H](C(C)C)N2Cc3ccc(N4CCN(CCCc5ccc(C(=O)N[C@H]6C(C)(C)[C@H](Oc7ccc(C#N)c(C(F)(F)F)c7)C6(C)C)cc5)CC4)cc3C2=O)cc1 [Example 761, (2S,4R)-1-((R)-2-(6-(4-(3-(4-(((1r,3r)-3-(4-cyano-3-(trifluoromethyl)phenxoy)-2,2,4,4-tetramethylcyclobutyl)carbamoyl)phenyl)propyl)piperazin-1-yl)-1-oxoisoindolin-2-yl)-3-methylbutanoyl)-4-hydroxy-N-(4-(4-methylthiazol-5-yl)benzyl)pyrrolidine-2-carboxamide]
[3]
  DC50: > 501 nM
VCaP, read-out: VCaP Dmax (%), VCaP cells; Table 36
  Dmax: < 25%

## Cc1ncsc1-c1ccc([C@@H](C)NC(=O)[C@@H]2C[C@@H](O)CN2C(=O)[C@@H](NC(=O)COCCCCNc2ccc(C(=O)N[C@H]3C(C)(C)[C@H](Oc4ccc(C#N)c(Cl)c4)C3(C)C)cc2)C(C)(C)C)cc1 [Example 178, (2S,4R)-1-[(2S)-3,3-dimethyl-2-(2-{4-[(4-{[trans-3-(3-chloro-4-cyanophenoxy)-2,2,4,4-tetramethylcyclobutyl]carbamoyl}phenyl)amino]butoxy}acetamido)butanoyl]-4-hydroxy-N-[(1R)-1-[4-(4-methyl-1,3-thiazol-5-yl)phenyl]ethyl]pyrrolidine-2-carboxamide]
[1]
  Dmax: 26 to 50%
[2]
  DC50: < 50 nM

## Cc1ncsc1-c1ccc(CNC(=O)[C@@H]2C[C@@H](O)CN2C(=O)[C@@H](NC(=O)COCCC2CCN(CCOc3ccc(N4C(=S)N(c5ccc(C#N)c(C(F)(F)F)c5)C(=O)C4(C)C)cc3)CC2)C(C)(C)C)cc1 [Example 318]
VCaP, read-out: VCaP Dmax (%)
  Dmax: 26 to 50%
read-out: VCaP DC50; VCaP cells; Table 34
  DC50: 51 to 500 nM

## Cc1ncsc1-c1ccc([C@H](CO)NC(=O)[C@@H]2C[C@@H](O)CN2C(=O)[C@@H](NC(=O)CN2CCC(CN3CCN(c4ccc(C(=O)N[C@H]5C(C)(C)[C@H](Oc6ccc(C#N)c(Cl)c6)C5(C)C)cn4)CC3)CC2)C(C)(C)C)cc1 [Example 847, N-((1r,3r)-3-(3-chloro-4-cyanophenoxy)-2,2,4,4-tetramethylcyclobutyl)-6-(4-((1-(2-(((S)-1-((2S,4R)-4-hydroxy-2-(((R)-2-hydroxy-1-(4-(4-methylthiazol-5-yl)phenyl)ethyl)carbamoyl)pyrrolidin-1-yl)-3,3-dimethyl-1-oxobutan-2-yl)amino)-2-oxoethyl)piperidin-4-yl)methyl)piperazin-1-yl)nicotinamide]
[3]
  DC50: < 50 nM
VCaP, read-out: VCaP Dmax (%)
  Dmax: > 71%

## CC(C)(C)[C@H](NC(=O)COCCCOCCCCOc1ccc(N2C(=S)N(c3cnc(C#N)c(C(F)(F)F)c3)C(=O)C2(C)C)cc1F)C(=O)N1C[C@H](O)C[C@H]1C(=O)NCc1ccc(-c2cnco2)cc1 [Example 47, (2S,4R)-1-[(2S)-2-(2-{3-[4-(4-{3-[6-cyano-5-(trifluoromethyl)pyridin-3-yl]-5,5-dimethyl-4-oxo-2-sulfanylideneimidazolidin-1-yl}-2-fluorophenoxy)butoxy]propoxy}acetamido)-3,3-dimethylbutanoyl]-4-hydroxy-N-{[4-(1,3-oxazol-5-yl)phenyl]methyl}pyrrolidine-2-carboxamide]
VCaP, highest percentage of Androgen Receptor degradation observed, VCaP cells; read-out: VCaP Dmax (%)
  Dmax: 51 to 70%
Concentration that caused 50% Androgen Receptor degradation, VCaP cells; read-out: VCaP DC50
  DC50: < 50 nM

## COc1cc(C#N)ccc1CNC(=O)[C@@H]1C[C@@H](O)CN1C(=O)[C@@H](NC(=O)COCCCCCNc1ccc(C(=O)N[C@H]2C(C)(C)[C@H](Oc3ccc(C#N)c(Cl)c3)C2(C)C)cc1)C(C)(C)C [Example 510]
[6]
  DC50: < 50 nM
[7]
  Dmax: 51 to 70%

## Cc1ncsc1-c1ccc([C@H](C)NC(=O)[C@@H]2C[C@@H](O)CN2C(=O)[C@@H](NC(=O)COCCCOCCCCCNc2ccc(N3C(=S)N(c4ccc(C#N)c(C(F)(F)F)c4)C(=O)C3(C)C)cn2)C(C)(C)C)cc1 [Example 618, (2S,4R)-1-((S)-2-(2-(3-((5-((5-(3-(4-cyano-3-(trifluoromethyl)phenyl)-5,5-dimethyl-4-oxo-2-thioxoimidazolidin-1-yl)pyridin-2-yl)amino)pentyl)oxy)pro-poxy)acetamido)-3,3-dimethylbutanoyl)-4-hydroxy-N-((S)-1-(4-(4-methylthiazol-5-yl)phenyl)ethyl)pyrrolidine-2-carboxamide]
VCaP, read-out: VCaP Dmax (%)
  Dmax: 51 to 70%
[5]
  DC50: < 50 nM
